Some test systems named below: EKVX; HOP-62; OVCAR-3; 786-0; COLO 205; A549; TK-10; MDA-MB-435; SNB-75; MOLT-4; MCF7; T47D; UACC-257; NCI-H226; CCRF-CEM; OVCAR-5; NCI-H460; NCI-H522; Malme-3M; SF-268.
Common to all, as to assay: NCI tumour cell line growth inhibition, 48 h

SMILES strings stand for the structures.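 The compound was tested at five concentrations on cells cultured in 96-well plates, with a 48-hour exposure period. GI50 marks 50% less growth.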 The source made the active and inactive calls. Rule as the data show it: active = GI50 up to about 1.1 µM and inactive = higher.

Consider `CCOc1cc(NC(C)=O)ccc1C(=O)NN1C(=O)C(Oc2ccccc2)C1c1ccc(O)c(OC)c1` (configuration not stated), for which the GI50 is 35.3 µM (inactive) in the assay with EKVX; 42.7 µM (inactive) with HOP-62; 41.5 µM (inactive) in the assay on OVCAR-3; 43.8 µM (inactive) in the assay with 786-0; 30.3 µM (inactive) in the assay on COLO 205; 56.5 µM (inactive) with A549. The GI50 in the assay with TK-10 is 40.8 µM (inactive); in the assay on MDA-MB-435, 42.4 µM (inactive); in the assay on SNB-75 it was 44.6 µM (inactive); in the assay on MOLT-4, 12.9 µM (inactive); with MCF7, 39.5 µM (inactive); in the assay with T47D, 14.4 µM (inactive). Besides, the GI50 in the assay on UACC-257 was 47 µM (inactive); in the assay with NCI-H226 it was 34.2 µM (inactive); with CCRF-CEM, 22.5 µM (inactive); with OVCAR-5, > 100 µM (inactive).
For the molecule `Nc1nc(N)c2nnn(C[C@H]3CC[C@@H](CO)C3)c2n1`, the GI50 with EKVX, with HOP-62, in the assay on NCI-H460, in the assay with NCI-H522, in the assay with OVCAR-3 and in the assay on 786-0 was > 100 µM (inactive) in each case. Besides, the GI50 with COLO 205, in the assay on A549, with TK-10, in the assay with MDA-MB-435, in the assay on SNB-75 and in the assay with MOLT-4 was > 100 µM (inactive) throughout. For the same molecule, the GI50 in the assay on MCF7, with Malme-3M, in the assay with SF-268, in the assay on UACC-257, with NCI-H226 and in the assay on CCRF-CEM was > 100 µM (inactive) in each case. Besides, the GI50 in the assay with OVCAR-5 is > 100 µM (inactive).
For the molecule `Fc1nc(-c2c3ccccc3c3sc4ccccc4n23)nc(N2CCOCCOCCOCCOCC2)n1`, the GI50 in the assay with EKVX was > 100 µM (inactive); with HOP-62, 23.7 µM (inactive); in the assay on NCI-H460, > 100 µM (inactive); with NCI-H522, > 100 µM (inactive); in the assay on OVCAR-3, 63.1 µM (inactive); in the assay on 786-0 it was 32.8 µM (inactive). Besides, the GI50 is > 100 µM (inactive) in the assay on COLO 205; > 100 µM (inactive) in the assay with A549; 54.2 µM (inactive) with TK-10; > 100 µM (inactive) in the assay on MDA-MB-435; 2.56 µM (inactive) with SNB-75; 66.4 µM (inactive) with MOLT-4. In addition, the GI50 is > 100 µM (inactive) with MCF7; > 100 µM (inactive) in the assay with Malme-3M; > 100 µM (inactive) in the assay with SF-268; > 100 µM (inactive) with UACC-257; > 100 µM (inactive) in the assay with NCI-H226; 54.5 µM (inactive) in the assay with CCRF-CEM. Moreover, the GI50 in the assay with OVCAR-5 was > 100 µM (inactive).
As for `c1csc(-c2cscc2-c2cccs2)c1`, the GI50 is 58.3 µM (inactive) in the assay with EKVX; 27.6 µM (inactive) in the assay with HOP-62; > 100 µM (inactive) with NCI-H460; 17.4 µM (inactive) in the assay with OVCAR-3; 43.6 µM (inactive) with 786-0; 50.8 µM (inactive) with COLO 205. For the same molecule, the GI50 in the assay on A549 was 39.4 µM (inactive); in the assay with TK-10 it was 91 µM (inactive); in the assay with MDA-MB-435, 33.4 µM (inactive); in the assay on SNB-75, 69.2 µM (inactive); in the assay on MOLT-4, 34.5 µM (inactive); in the assay on MCF7, 20.2 µM (inactive). Further, the GI50 is > 100 µM (inactive) in the assay on T47D; > 100 µM (inactive) with SF-268; 95.1 µM (inactive) in the assay on UACC-257; 27.1 µM (inactive) with NCI-H226; 44.1 µM (inactive) in the assay on CCRF-CEM; 24.1 µM (inactive) with OVCAR-5.
Take `CC(=O)OC1=C(CC(C)(C)C)C(=O)c2ccccc2C1=O`: the GI50 in the assay on EKVX is 37 µM (inactive); in the assay with HOP-62, 35.2 µM (inactive); in the assay with NCI-H460 it was 25 µM (inactive); in the assay on 786-0, 39.6 µM (inactive); in the assay on COLO 205, 23.6 µM (inactive); with TK-10, 68.9 µM (inactive). Also, the GI50 in the assay with MDA-MB-435 is 21.7 µM (inactive); in the assay with SNB-75, 27.4 µM (inactive); with MCF7, 39.5 µM (inactive); in the assay with T47D, 44.2 µM (inactive); with SF-268 it was 21.6 µM (inactive); in the assay with UACC-257, 38.5 µM (inactive). Further, the GI50 in the assay on NCI-H226 is 19.8 µM (inactive); with CCRF-CEM, 19.3 µM (inactive).
As for `CN(C)CCNC1=CC(=O)c2nc3ccccc3c3ccnc1c23`, the GI50 in the assay on EKVX was 2.94 µM (inactive); in the assay on HOP-62 it was 4.79 µM (inactive); in the assay with NCI-H460 it was 2.39 µM (inactive); in the assay with NCI-H522, 2.94 µM (inactive); in the assay with OVCAR-3 it was 2.78 µM (inactive); in the assay on 786-0, 2.81 µM (inactive). The GI50 was 2.75 µM (inactive) with COLO 205; 4.52 µM (inactive) in the assay with A549; 8.2 µM (inactive) in the assay with TK-10; 7.52 µM (inactive) with MDA-MB-435; 13.1 µM (inactive) with SNB-75; 2.48 µM (inactive) in the assay on MOLT-4. Also, the GI50 in the assay on MCF7 is 3.75 µM (inactive); with Malme-3M it was 3 µM (inactive); with SF-268, 4.53 µM (inactive); in the assay on UACC-257 it was 9.62 µM (inactive); with NCI-H226, 2.04 µM (inactive); with CCRF-CEM it was 3.88 µM (inactive). The GI50 in the assay with OVCAR-5 is 5.74 µM (inactive).
As for `N#Cc1c(N)c(C#N)c2c(c1-c1ccc(Cl)cc1)COc1ccccc1-2`, the GI50 was 9.14 µM (inactive) in the assay with EKVX; 14.9 µM (inactive) in the assay on HOP-62; 30.3 µM (inactive) in the assay on NCI-H460; 13.7 µM (inactive) in the assay on OVCAR-3; 3.02 µM (inactive) in the assay on 786-0; 48 µM (inactive) in the assay with COLO 205. Moreover, the GI50 in the assay on A549 was 14.5 µM (inactive); in the assay with TK-10 it was 14.6 µM (inactive); in the assay on MDA-MB-435, 31.7 µM (inactive); with MOLT-4 it was 11.4 µM (inactive); with MCF7, 29 µM (inactive); in the assay with T47D, 18.8 µM (inactive). Besides, the GI50 is 22 µM (inactive) in the assay on Malme-3M; 29.4 µM (inactive) in the assay with SF-268; 44.1 µM (inactive) in the assay with UACC-257; 32.1 µM (inactive) in the assay with NCI-H226; 16.5 µM (inactive) with CCRF-CEM; 24.9 µM (inactive) with OVCAR-5.
On to `CC(C)C(/C=C/c1ccc(Cl)c(Cl)c1)=N\NC(=O)N/N=C(/C=C/c1ccc(Cl)c(Cl)c1)C(C)C`, for which the GI50 with EKVX, in the assay with HOP-62, in the assay with NCI-H460, with NCI-H522, with OVCAR-3 and in the assay on 786-0 was > 100 µM (inactive) in each case. Moreover, the GI50 in the assay on COLO 205, in the assay with TK-10, in the assay with MDA-MB-435, in the assay on SNB-75, in the assay with MOLT-4 and in the assay with MCF7 was > 100 µM (inactive) in each case. Moreover, the GI50 with Malme-3M, with SF-268, in the assay on UACC-257, in the assay with NCI-H226, in the assay with CCRF-CEM and in the assay with OVCAR-5 was > 100 µM (inactive) each time.
As to `N#CC(NNC(=O)c1c(Cl)c(Cl)c(Cl)c(Cl)c1-c1nc2cc(C(=O)c3ccccc3)ccc2[nH]1)c1cccc(Oc2ccccc2)c1` (configuration not stated), the GI50 with EKVX was 15.8 µM (inactive); in the assay on HOP-62 it was 25.8 µM (inactive); in the assay with OVCAR-3 it was 28.1 µM (inactive); with 786-0, 22 µM (inactive); with COLO 205 it was 20.8 µM (inactive); in the assay with A549, 30.9 µM (inactive). In addition, the GI50 with TK-10 was 31.3 µM (inactive); with MDA-MB-435, 16.6 µM (inactive); in the assay on SNB-75, 23.7 µM (inactive); in the assay with MOLT-4 it was 24.3 µM (inactive); with MCF7 it was 20.3 µM (inactive); in the assay on T47D, 18.9 µM (inactive). The GI50 is 38.1 µM (inactive) in the assay with UACC-257, 21.3 µM (inactive) in the assay on NCI-H226, 15.6 µM (inactive) in the assay with CCRF-CEM and 28.7 µM (inactive) with OVCAR-5.
Consider `COc1nc(SC)nc2c1C(O)n1c(nc3ccccc31)S2` (configuration not stated), for which the GI50 is 36.1 µM (inactive) in the assay on EKVX; 12.1 µM (inactive) in the assay with HOP-62; 15 µM (inactive) in the assay with NCI-H460; 23 µM (inactive) in the assay with NCI-H522; 32.7 µM (inactive) in the assay with OVCAR-3; 6.65 µM (inactive) in the assay with 786-0. Also, the GI50 is 28.6 µM (inactive) in the assay with A549; 23.7 µM (inactive) in the assay with TK-10; 20.1 µM (inactive) with MDA-MB-435; 4.15 µM (inactive) with MOLT-4; 1.84 µM (inactive) in the assay on MCF7; 40 µM (inactive) in the assay on Malme-3M. Besides, the GI50 with SF-268 is 18.4 µM (inactive); in the assay with UACC-257 it was 59.6 µM (inactive); with CCRF-CEM it was 2.32 µM (inactive); in the assay with OVCAR-5, 82 µM (inactive).
Turning to `S=C(Nc1ccc(Cl)cc1)c1ccc(CN2CCCCC2)s1`, the GI50 is 12.3 µM (inactive) with EKVX; 4.62 µM (inactive) in the assay on NCI-H460; 21.9 µM (inactive) in the assay on NCI-H522; 31.1 µM (inactive) with OVCAR-3; 4.25 µM (inactive) in the assay on 786-0; 2.68 µM (inactive) in the assay on COLO 205. Also, the GI50 in the assay on A549 is 0.811 µM (active); with MDA-MB-435, 4.03 µM (inactive); in the assay on MOLT-4, 2.77 µM (inactive); in the assay on MCF7, 13.9 µM (inactive); with SF-268, 36.3 µM (inactive); in the assay with UACC-257, 10.6 µM (inactive). In addition, the results for the GI50 in the assay on CCRF-CEM and with OVCAR-5 were 3.17 µM (inactive) and 1.56 µM (inactive), respectively.
